From patent publication US11667675B2, “MASP inhibitory compounds and uses thereof” (Bayer Aktiengesellschaft, priority 2019, dated 2023)
Structures can show the parent of a compound that is named as a salt. Numbered stars: 1 amine (or outer) side, 2 acyl side, 3 side chain; on linkers, the order of the positions; unused ones are H or OH. Bridge positions count the residues as written; N and C are the ends. Square brackets hold non-standard residues; d marks the D form. Peptide text beside a SMILES is read from it. * marks the point of attachment. X1 = O=C(C1[C@H]2CCCC[C@H]2C[C@H]1C(=O)[*:2])[C@@H]1CCCN1[*:1]; Oic = O=C(O)[C@@H]1C[C@@H]2CCCC[C@@H]2N1; Pen = CC(C)(S)[C@H](N)C(=O)O; X2 = N[C@@H](CN*)C(=O)O; Sar = CNCC(=O)O

How the values were obtained:
Human C3-[…] = assay: C3 deposition assay, human serum on mannan-coated plates; type: biochemical; conditions: average IC50, read-out: Human C3-DEPOSITION SERUM IC50
How it was run: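 Plates coated overnight at 4° C with mannan (10 μg/mL, pH 9.6), blocked with 1% BSA; serum C3 deposition detected colorimetrically at 450 nm, washes in TBS/0.05% Tween 20/5 mM CaCl2.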

rat MASP2 = target: T1, rat MASP2 (Rattus norvegicus, UniProt Q9JJS8); assay: Biochemical rat MASP2 assay (FRET substrate); conditions: average IC50; recombinant rat MASP2, FRET substrate
T1 construct: Ig-kappa secretion signal (N, cleaved yes); made in house; host or cells: HEK293 (ATCC No. CRL-1573)
Description: 4. Biochemical Rat MASP-1 and MASP-2 Assay
4.1 Recombinant Expression and Protein Production of Recombinant Human and Rat MASP1 and MASP2 Active Proteases.
The MASP1 or MASP2 expression vectors were transfected into the HEK293 (ATCC No. CRL-1573) cell line using Lipofectamine LTX® Reagent (Thermo-Fischer), as described by the manufacturer. The mature form of the recombinant rat MASP1 and MASP2 proteases were secreted into the culture medium. The MASP1 and MASP2 proteins were purified from the conditioned media by affinity chromatography on Ni-NTA Superflow resin (Qiagen) as described by the manufacturer.
4.3 Biochemical Rat MASP2 Assay.
Recombinant rat MASP2 enzyme produced in the HEK 293 cells was diluted in the reaction buffer (50 mM HEPES pH 8,0; 100 mM NaCl; 0.01% CHAPS; 0.5 mM Gluthathione) to the concentration of 20 nM and 25 μl was transferred into each single well of 384-well white microtiter plate (Greiner Bio One 781075). 1 μl of the inhibitor compound solution (dissolved in DMSO, at the corresponding concentration) or pure DMSO as a control was added to the same wells. The enzymatic reaction was initiated by addition of 25 μl of 30 μM solution of the FRET substrate Abz-IEGRTSED-(Lys)Dnp-NH2 (SEQ ID NO: 9); (ABZ—2-aminobenzoyl; DNP_2,4-dinitrophenyl; custom synthesis by Jerini Peptide Technologies, Berlin) in the reaction buffer. The microtiter plate was incubated for 60-120 min at the temperature of 32 C. The increase of fluorescence intensity was measured in appropriate fluorescence plate reader (e.g. TECAN Ultra) using excitation wavelength of 320 nm and emission wavelength of 420 nm. IC50 values were calculated from percentage of inhibition of rat […] activity as a function of test compound concentration.

human MASP1 = target: T2, human MASP1 (Homo sapiens, UniProt P48740); assay: Biochemical human MASP1 assay (FRET substrate); conditions: average IC50
T2 construct: Ig-kappa secretion signal (N, cleaved yes); made in house; host or cells: HEK293 (ATCC No. CRL-1573)
T2 sequence (P48740 297-448): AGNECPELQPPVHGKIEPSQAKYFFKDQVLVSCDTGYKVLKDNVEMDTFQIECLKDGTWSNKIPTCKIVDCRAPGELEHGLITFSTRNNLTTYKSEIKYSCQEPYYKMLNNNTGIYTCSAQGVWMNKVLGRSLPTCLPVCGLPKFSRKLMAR
T2 sequence (P48740 449-699): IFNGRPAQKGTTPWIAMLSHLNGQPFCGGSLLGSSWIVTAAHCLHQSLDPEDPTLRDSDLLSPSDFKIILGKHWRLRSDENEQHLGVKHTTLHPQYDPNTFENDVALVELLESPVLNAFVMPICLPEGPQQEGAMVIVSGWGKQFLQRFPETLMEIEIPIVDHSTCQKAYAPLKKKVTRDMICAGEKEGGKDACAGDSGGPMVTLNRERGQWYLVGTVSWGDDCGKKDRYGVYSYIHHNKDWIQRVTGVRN

T1 sequence (Q9JJS8 296-443): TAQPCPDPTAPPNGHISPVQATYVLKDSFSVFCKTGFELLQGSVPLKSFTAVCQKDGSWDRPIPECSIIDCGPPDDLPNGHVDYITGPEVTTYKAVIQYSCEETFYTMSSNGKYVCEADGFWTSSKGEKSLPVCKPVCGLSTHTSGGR
T1 sequence (Q9JJS8 444-685): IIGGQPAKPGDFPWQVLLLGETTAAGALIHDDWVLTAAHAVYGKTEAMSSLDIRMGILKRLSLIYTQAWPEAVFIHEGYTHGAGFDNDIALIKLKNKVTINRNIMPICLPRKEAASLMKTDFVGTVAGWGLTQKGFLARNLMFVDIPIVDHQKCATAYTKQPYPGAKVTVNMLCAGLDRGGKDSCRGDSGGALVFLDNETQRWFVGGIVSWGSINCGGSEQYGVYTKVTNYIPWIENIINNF

Structure (SMILES)	IC50 (Human C3-[…]) [µM]	IC50 (rat MASP2) [µM]	IC50 (human MASP1) [µM]
CC[C@H](C)[C@H](NC(=O)[C@H](C)NC)C(=O)N[C@H]1CSSC(C)(C)[C@@H](C(=O)N[C@H](C(=O)N2CCC[C@H]2C(N)=O)[C@@H](C)CC)NC(=O)[C@H]([C@@H](C)CC)NC(=O)[C@@H]2C[C@@]3(CN2C(=O)[C@@H]2CCCN2C(=O)[C@@H](CC(C)(C)C)NC(=O)[C@H](CO)NC(=O)[C@H](CCCNC(=N)N)NC(=O)[C@H](CO)NC1=O)CC3(F)F (single isomer, unassigned; enantiomer 1) [Example 443]	0.0252	0.0047	0.00078
CC[C@H](C)[C@H](NC(=O)CNC)C(=O)N[C@H]1CSSC(C)(C)[C@@H](C(=O)N[C@H](C(=O)N2CCC[C@H]2C(N)=O)[C@@H](C)CC)NC(=O)[C@H]([C@@H](C)CC)NC(=O)[C@@H]2C[C@@H]3CCCC[C@@H]3C2C(=O)[C@@H]2CCCN2C(=O)[C@H](CC(C)C)NC(=O)[C@H](CO)NC(=O)[C@H](CCCNC(=N)N)NC(=O)[C@H](CO)NC1=O (stereo partly drawn) [Example 67, ((N-Me)G)-IC+SRSLP-(Oic)-I-(Pen)+IP-NH2 (HCl Salt)] (H-[Sar]ICSRSL[X1]I[Pen]IP-NH2; disulfide 3-10)	0.121	0.036	0.0022
CC[C@H](C)[C@H](NC(=O)CNC)C(=O)N[C@H]1CSSC(C)(C)[C@@H](C(=O)N[C@H](C(=O)N2CCC[C@H]2C(N)=O)[C@@H](C)CC)NC(=O)[C@H]([C@@H](C)CC)NC(=O)[C@@H]2C[C@@H]3CCCC[C@@H]3N2C(=O)[C@@H]2CCCN2C(=O)[C@H](CC(C)C)NC(=O)[C@H](CO)NC(=O)[C@H](CCCNC(=N)N)NC(=O)[C@H](CO)NC1=O [Example 109, ((N-Me)G)-IC+SRSLP-(Oic)-I-(Pen)+IP-NH2] (H-[Sar]ICSRSLP[Oic]I[Pen]IP-NH2; disulfide 3-11)	0.135	0.042	0.0029
[2H][C@@H]1[C@H]([2H])CN2C(=O)[C@H](CC(C)C)NC(=O)[C@H](CO)NC(=O)[C@H](CCCNC(=N)N)NC(=O)[C@H](CO)NC(=O)[C@@H](NC(=O)[C@@H](NC(=O)[C@H](C)N)[C@@H](C)CC)CSSC(C)(C)[C@@H](C(=O)N[C@H](C(=O)N3CCC[C@H]3C(=O)N[C@@H](CC(=O)O)C(=O)O)[C@@H](C)CC)NC(=O)[C@H]([C@@H](C)CC)NC(=O)[C@@H]3C[C@@H]4CCCC[C@@H]4N3C(=O)[C@H]12 [Example 142, N-[(1R,2S,6S,9S,12S,15S,18R,23R,26S,28aS,35aS)-18-[(L-alanyl-L-isoleucyl)amino]-26-[(2S)-butan-2-yl]-12-(3-carbamimidamidopropyl)-9,15-bis(hydroxymethyl)-22,22-dimethyl-6-(2-methylpropyl)-5,8,11,14,17,25,28,35-octaoxo(1,2-^2H2)dotriacontahydro-1H,5H,22H-pyrrolo[2′,1′:13,14][1,2,5,8,11,14,17,20,23,26]dithiaoctaazacyclononacosino[11,10-a]indole-23-carbonyl]-L-isoleucyl-L-prolyl-L-aspartic Acid]	0.0124	0.0171	0.00213
CC[C@H](C)[C@H](NC(=O)[C@H](C)N)C(=O)N[C@H]1CSSC[C@@H](C(=O)N[C@H](C(=O)N2CCC[C@H]2C(=O)N[C@@H](CC(=O)O)C(N)=O)[C@@H](C)CC)N(C)C(=O)[C@H]([C@@H](C)CC)NC(=O)[C@@H]2C[C@@H]3CCCC[C@@H]3N2C(=O)[C@@H]2CCCN2C(=O)[C@H](CC(C)C)NC(=O)[C@H](CO)NC(=O)[C@H](CCCNC(=N)N)NC(=O)[C@H](CO)NC1=O [Example 185, AIC+SRSLP-(Oic)-I-((N-Me)C)+IPD-NH2]	0.00674	0.0109	0.0048
CC[C@H](C)[C@H](NC(=O)CNC)C(=O)N[C@H]1CSSC(C)(C)[C@@H](C(=O)N[C@H](C(=O)N2CCC[C@H]2C(=O)N[C@@H](CC(=O)O)C(=O)N[C@@H](CC(=O)O)C(=O)O)[C@@H](C)CC)NC(=O)[C@H]([C@@H](C)CC)NC(=O)[C@@H]2C[C@@H]3CCCC[C@@H]3N2C(=O)[C@@H]2CCCN2C(=O)[C@H](CC(C)C)NC(=O)[C@H](CO)NC(=O)[C@H](CCCNC(=N)N)NC(=O)[C@H](CO)NC1=O [Example 466, ((N-Me)G)-IC+SRSLP-(Oic)-I-(Pen)+IPDD-OH] (H-[Sar]ICSRSLP[Oic]I[Pen]IPDD-OH; disulfide 3-11)	0.0716	0.072	0.00072
CC[C@H](C)[C@H](NC(=O)CNC)C(=O)N[C@H]1CSSC(C)(C)[C@@H](C(=O)N[C@H](C(=O)N2CCC[C@H]2C(=O)NC[C@H](N)C(=O)O)[C@@H](C)CC)NC(=O)[C@H]([C@@H](C)CC)NC(=O)[C@@H]2C[C@@H]3CCCC[C@@H]3N2C(=O)[C@@H]2CCCN2C(=O)[C@H](CC(C)C)NC(=O)[C@H](CO)NC(=O)[C@H](CCCNC(=N)N)NC(=O)[C@H](CO)NC1=O [Example 467] (H-[Sar]ICSRSLP[Oic]I[Pen]IP-X2; disulfide 3-11)	0.0415	0.07	0.0066
